Reference: US8722720B2, “Imidazole derivatives as IDO inhibitors” (NewLink Genetics Corporation, priority 2010, dated 2014)

Molecular target: T1, purified human IDO protein (Homo sapiens, UniProt P14902)
T1 construct: 2 extra amino acids (linker from the BglII cloning site of pQE70); made in house; host or cells: E. coli M15(pREP4) with plasmid pQE70-hIDO
Assay: Enzymatic IDO assay (kynurenine production, absorbance at 480 nm)
Type: biochemical
Settings: recombinant human IDO; values reported in ranges; read-out: hIDO IC50
Experimental: The inhibitors were initially diluted in DMSO at 100 mM and were diluted in potassium phosphate 50 mM, added to the reaction mixture at final concentrations raging from 1 mM to 5 nM and preincubated with the enzyme for 5 min at 25° C. The reaction was started by addition of L-tryptophan to 200 μM and incubated 15 min at 37° C. The reaction was stopped by addition of 0.5 vol of 30% trichloroacetic acid and incubated 30 min at 60° C. to hydrolyze N-formylkynurenine to kynurenine. The reaction was centrifuged at 3400 g for 5 min to remove precipitated protein and the supernatant was reacted with 2% (w/v) of p-dimethylaminobenzaldehyde in acetic acid. The reaction was incubated 10 min at 25° C. and read at 480 nm in a spectrophotometer. […] Nonlinear regressions and determination of the IC50 values were performed using the GraphPad Prism 4 software.

T1 sequence (P14902 whole entry P110S/E119G): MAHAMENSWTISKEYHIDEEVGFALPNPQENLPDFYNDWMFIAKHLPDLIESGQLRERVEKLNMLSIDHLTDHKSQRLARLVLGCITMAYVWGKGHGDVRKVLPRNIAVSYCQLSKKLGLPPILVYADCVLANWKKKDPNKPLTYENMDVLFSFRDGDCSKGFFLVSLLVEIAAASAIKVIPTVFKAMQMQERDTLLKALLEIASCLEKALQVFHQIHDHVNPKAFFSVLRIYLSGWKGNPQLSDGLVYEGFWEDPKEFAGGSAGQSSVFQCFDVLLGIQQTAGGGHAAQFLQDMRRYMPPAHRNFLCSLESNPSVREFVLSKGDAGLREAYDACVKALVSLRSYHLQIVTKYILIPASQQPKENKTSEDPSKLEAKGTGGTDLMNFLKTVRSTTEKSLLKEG

| Compound | IC50 [µM] |
| --- | --- |
| N[C@@H]1CCCC[C@H]1NC(=O)Nc1ccc(CCOc2ccccc2-c2c[nH]cn2)c(Cl)c1 (racemic) [compound 1361, 1-(4-(2-(2-(1H-imidazol-4-yl)phenoxy)ethyl)-3-chlorophenyl)-3-(±(1R,2R)-2-aminocyclohexyl)urea] | < 1 |
| N[C@H]1CCCC[C@H]1NC(=O)Nc1ccc(CCOc2ccccc2-c2c[nH]cn2)c(Cl)c1 (racemic) [compound 1368, 1-(4-(2-(2-(1H-imidazol-4-yl)phenoxy)ethyl)-3-chlorophenyl)-3-(±(1R,2S)-2-aminocyclohexyl)urea] | < 1 |
| O=C(O)c1ccccc1-c1c[nH]cn1 [compound 926, 2-(1H-imidazol-4-yl)benzoic acid] | > 100 |
| COC(=O)c1ccccc1CCOc1ccccc1-c1c[nH]cn1 [compound 934, methyl 2-(2-(2-(1H-imidazol-4-yl)phenoxy)ethyl) benzoate] | > 100 |
| COc1ccccc1-c1cnco1 [compound 945, 5-(2-methoxyphenyl)oxazole] | > 100 |
| O=C(NCc1cccc(Cl)c1)C1CCC(=CCOc2ccccc2-c2c[nH]cn2)CC1 (centres unmarked) [compound 947, 4-(2-(2-(1H-imidazol-4-yl)phenoxy)ethylidene)-N-(3-chlorobenzyl)cyclohexanecarbox-amide] | 10 to 100 |
| c1cc(-c2c[nH]cn2)c2[nH]ccc2c1 [compound 948, 7-(1H-imidazol-4-yl)-1H-indole] | 10 to 100 |
| c1nc(-c2ccc3[nH]ccc3c2)c[nH]1 [compound 949, 5-(1H-imidazol-4-yl)-1H-indole] | > 100 |
| c1cnc2c(-c3c[nH]cn3)cccc2c1 [compound 952, 8-(1H-imidazol-4-yl)quinoline] | > 100 |
| O=C(COc1ccccc1-c1c[nH]cn1)c1cccc(Br)c1 [compound 953, 2-(2-(1H-imidazol-4-yl)phenoxy)-1-(3-bromo-phenyl)ethanone] | 10 to 100 |
| OC(COc1ccccc1-c1c[nH]cn1)c1cccc(Br)c1 (centres unmarked) [compound 954, 2-(2-(1H-imidazol-4-yl)phenoxy)-1-(3-bromo-phenyl)ethanol] | 10 to 100 |
| c1nc(-c2ccc3c(c2)OCO3)c[nH]1 [compound 955, 4-(benzo[d][1,3]dioxol-5-yl)-1H-imidazole] | > 100 |
| Oc1c(-c2c[nH]cn2)cc(Cl)c2cccnc12 [compound 956, 5-chloro-7-(1H-imidazol-4-yl)quinolin-8-ol] | > 100 |
| c1ccc2c(-c3cnc[nH]3)cccc2c1 [compound 957, 5-(naphthalen-1-yl)-1H-imidazole] | 10 to 100 |
| CC(=O)NCc1cccc(COc2ccccc2-c2c[nH]cn2)c1 [compound 958, N-(3-((2-(1H-imidazol-4-yl)phenoxy)methyl)benzyl)acetamide] | 10 to 100 |
| CC(=O)N(Cc1ccccc1)Cc1cccc(COc2ccccc2-c2c[nH]cn2)c1 [compound 959, N-(3-((2-(1H-imidazol-4-yl)phenoxy)methyl)benzyl)-N-benzylacetamide] | 10 to 100 |
| c1nc(-c2ccc3cc[nH]c3c2)c[nH]1 [compound 961, 6-(1H-imidazol-4-yl)-1H-indole] | 10 to 100 |
| c1cc(-c2c[nH]cn2)c2nsnc2c1 [compound 962, 4-(1H-imidazol-4-yl)benzo[c][1,2,5]thiadiazole] | 10 to 100 |
| c1cnc2[nH]cc(-c3c[nH]cn3)c2c1 [compound 964, 3-(1H-imidazol-4-yl)-1H-pyrrolo[2,3-b]pyridine] | > 100 |
| CC(C)(C)C(=O)Oc1ccc(Br)cc1-c1c[nH]cn1 [compound 967, 4-bromo-2-(1H-imidazol-4-yl)phenyl pivalate] | 1 to 10 |
| Clc1ccc2c(-c3c[nH]cn3)ccnc2c1 [compound 969, 7-chloro-4-(1H-imidazol-4-yl)quinoline] | > 100 |
| c1nc(-c2ccc3c(c2)OCCO3)c[nH]1 [compound 971, 4-(2,3-dihydrobenzo[b][1,4]dioxin-6-yl)-1H-imidazole] | > 100 |

| Compound | IC50 [µM] |
| --- | --- |
| c1cnc(-c2c[nH]cn2)nc1 [compound 972, 2-(1H-imidazol-4-yl)pyrimidine] | > 100 |
| c1ccc2[nH]c(-c3c[nH]cn3)cc2c1 [compound 975, 2-(1H-imidazol-4-yl)-1H-indole] | 10 to 100 |
| CCC(O)(COc1ccccc1-c1c[nH]cn1)c1cccs1 (centres unmarked) [compound 976, 1-(2-(1H-imidazol-4-yl)phenoxy)-2-(thiophen-2-yl)butan-2-ol] | 10 to 100 |
| CC(O)(COc1ccccc1-c1c[nH]cn1)c1cccs1 (centres unmarked) [compound 977, 1-(2-(1H-imidazol-4-yl)phenoxy)-2-(thiophen-2-yl)propan-2-ol] | 10 to 100 |
| CC(COc1ccccc1-c1c[nH]cn1)c1ccccc1 (centres unmarked) [compound 978, 4-(2-(2-phenylpropoxy)phenyl)-1H-imidazole] | 10 to 100 |
| O=C(O)c1ccccc1C(=O)COc1ccccc1-c1c[nH]cn1 [compound 979, 2-(2-(2-(1H-imidazol-4-yl)phenoxy)acetyl) benzoic acid] | > 100 |
| c1cc(-c2c[nH]cn2)ccn1 [compound 982, 4-(1H-imidazol-4-yl)pyridine] | > 100 |
| c1ccc(OCc2cccc(-c3c[nH]cn3)c2)cc1 [compound 996, 4-(3-(phenoxymethyl)phenyl)-1H-imidazole] | 10 to 100 |
| Clc1ccc(COc2ccccc2-c2c[nH]cn2)cc1Cl [compound 1003, 4-(2-(3,4-dichlorobenzyloxy)phenyl)-1H-imidazole] | 1 to 10 |
| c1ccc2c(-c3c[nH]cn3)cncc2c1 [compound 1004, 4-(1H-imidazol-4-yl)isoquinoline] | > 100 |
| Oc1ccc(-c2ccccc2)cc1-c1c[nH]cn1 [compound 1005, 3-(1H-imidazol-4-yl)biphenyl-4-ol] | 10 to 100 |
| OC(c1ccccc1)c1c[nH]cn1 (centres unmarked) [compound 1006, (1H-imidazol-4-yl)(phenyl)methanol] | > 100 |
| c1ccc2c(-c3c[nH]cn3)ccnc2c1 [compound 1007, 4-(1H-imidazol-4-yl)quinoline] | > 100 |
| COc1cccc(-c2c[nH]cn2)n1 [compound 1009, 2-(1H-imidazol-4-yl)-6-methoxypyridine] | > 100 |
| Oc1cccc(OCCCc2ccccc2)c1-c1cnc[nH]1 [compound 1010, 2-(1H-imidazol-5-yl)-3-(3-phenylpropoxy) phenol] | 10 to 100 |
| Oc1cccc(-c2c[nH]cn2)n1 [compound 1011, 6-(1H-imidazol-4-yl)pyridin-2-ol] | > 100 |
| COc1ncccc1-c1c[nH]cn1 [compound 1012, 3-(1H-imidazol-4-yl)-2-methoxypyridine] | > 100 |
| COc1cccc2c1-c1cncn1C2 [compound 1013, 9-methoxy-5H-imidazo[5,1-a]isoindole] | 10 to 100 |
| CCOC(=O)/C=C/c1ccccc1-c1c[nH]cn1 [compound 1014, (E)-ethyl 3-(2-(1H-imidazol-4-yl)phenyl)acrylate] | 10 to 100 |
| Oc1ncccc1-c1c[nH]cn1 [compound 1015, 3-(1H-imidazol-4-yl)pyridin-2-ol] | > 100 |
| Brc1ccc(OCCC2CCCCC2)c(-c2c[nH]cn2)c1 [compound 1016, 4-(5-bromo-2-(2-cyclohexylethoxy)phenyl)-1H-imidazole] | 10 to 100 |
| O=C(COc1ccccc1-c1c[nH]cn1)c1ccc2ccsc2c1 [compound 1018, 2-(2-(1H-imidazol-4-yl)phenoxy)-1-(benzo[b]thiophen-6-yl)ethanone] | 1 to 10 |
